Data published in publication PMC8944748, “Kojic Acid Showed Consistent Inhibitory Activity on Tyrosinase from Mushroom and in Cultured B16F10 Cells Compared with Arbutins” (Antioxidants, 2022).
“Also recorded” adds a separate entry of the source.

What was measured:
[1] = test system: diphenolase activity of MTYR; parameters: method as in PMID 7765966; settings: α-arbutin below 10 mM; cited from earlier work
[2] = test system: T1, B16F10 cellular tyrosinase (BTYR); test: B16F10 cellular tyrosinase (BTYR) activity, L-DOPA oxidase activity of lysate after treatment of cells; assay type: cell-based, mouse; settings: 48 h, percentage of control 2
T1 construct: The supernatant was used as the BTYR solution; endogenous in cells; host or cells: B16F10 mouse melanoma cells, α-MSH stimulated
Protocol: (§1) Measurement of B16F10 cellular tyrosinase (BTYR) activity, melanin content, and cell viability were the same as our previous study. Blank group (control 1) was the treatment containing cells and medium. Control group (control 2) was the treatment containing cells, medium, and α-MSH. Compound groups were the treatments containing cells, medium, α-MSH, and related compounds. Experiments were performed at least in triplicate.
(§2) B16F10 mouse malignant melanoma cell line from Stem Cell Bank (Chinese Academy of Sciences, Shanghai, China) were cultured in DMEM supplemented with 10% fetal bovine serum (FBS; Gibco, Grand Island, NV, USA) and antibiotics (100 U/mL penicillin and 100μg/mL streptomycin) in a humidified atmosphere of 5% CO2 at 37 °C. B16F10 cells at the exponential phase were adjusted for cell density and used in the following assay.
The BTYR activity was measured as the L-DOPA oxidase activity. B16F10 cells were seeded and incubated for 24 h in 24-well cell culture plates. Then, they were treated with 50 µL of 1 µM α-MSH and different molarities of compounds for another 48 h. After being washed twice with cold D-PBS and lysed with a lysis buffer (P0013J) containing 1% Triton X-100 for 30 min at −20 °C, the lysates were centrifuged at 12,000 rpm for 10 min at 4 °C. The supernatant was used as the BTYR solution. The reaction mixture, containing 50 μL of cell lysate supernatant and 50 μL of 5 mM L-DOPA, was incubated at 37 °C for 1 h and the level of dopachrome formation was measured spectrophotometrically at 475 nm. Lysis buffer was used as the control. The BTYR activity was calculated as a percentage of the control.

[3] = biological target: monophenolase of mushroom tyrosinase (MTYR); test: Kinetic analysis of MTYR monophenolase (Lineweaver-Burk plot); assay type: biochemical
Protocol: (§3) The concentration of enzyme was fixed, while the concentration of substrate was changed. […] When determining inhibition type of monophenolase, the concentration of kojic acid were 7.5, 30, and 120 µM. […] The concentrations of deoxyarbutin were 3.75, 15, and 60 µM. […] The concentrations of deoxyarbutin were 7.5, 30, and 120 µM. Once the substrate was added to the reaction system, the formation of dopachrome was immediately detected at 475 nm once every minute for 30 min. Steady state rate (V0) was defined as the slope of the linear range of progress curves, also called the dopachrome accumulation curve. The Km (substrate concentration that yield a half-maximal velocity) and Vmax (maximum velocity) of tyrosinase were determined by Michaelis–Menten equation. Lineweaver–Burk plot was used to display the data.

[4] = test system: diphenolase of mushroom tyrosinase (MTYR); test: MTYR diphenolase activity assay (L-DOPA as substrate, dopachrome at 475 nm); assay type: biochemical; settings: L-DOPA
Protocol: L-tyrosine and L-DOPA were used as the substrates to test the monophenolase activity and diphenolase activity, respectively. Freshly prepared tyrosinase and substrate solutions were used in this experiment. For air-saturated solutions, a temperature of 25 °C and pH of 6.8 was maintained throughout the study. All assays were performed in triplicate. […] Additionally, three concentrations of every compound were selected to present progress curves. Once the substrate was added in reaction system, the formation of dopachrome was immediately measured at 475 nm for 25 min at 1 min intervals.

B16F10 cells = test: Cellular melanin content of B16F10 cells stimulated by α-MSH; assay type: cell-based, mouse; settings: 48 h, percentage of control 2
Protocol: as §1, §2
Briefly, B16F10 cells were treated with compounds as in Section 2.4.2. After being washed with PBS and dissolved in 1 M NaOH containing 10% DMSO for 1 h at 80 °C, the cell lysates were centrifuged at 12,000 rpm for 10 min. 150 μL of supernatant was transferred to 96-well plates and the absorbance was measured at 405 nm. The melanin content is expressed as a percentage of the control.

[5] = test system: monophenolase of mushroom tyrosinase (MTYR); test: MTYR monophenolase activity assay (L-tyrosine as substrate, dopachrome at 475 nm); assay type: biochemical
Protocol: L-tyrosine and L-DOPA were used as the substrates to test the monophenolase activity and diphenolase activity, respectively. Freshly prepared tyrosinase and substrate solutions were used in this experiment. For air-saturated solutions, a temperature of 25 °C and pH of 6.8 was maintained throughout the study. All assays were performed in triplicate. In flat-bottom 96-well plates, the reaction media was 200 μL. […] Once the substrate was added in reaction system, the formation of dopachrome was immediately measured at 475 nm for 30 min at 1 min intervals. The concentrations of kojic acid were 7.5, 15, 30, 60, and 120 μM. The concentrations of α-arbutin were 480, 960, 2000, 4000, and 8000 μM. The concentrations of β-arbutin were 240, 480, 960, 2000, and 4000 μM. […] These concentrations were used to determine the progress curves and inhibition rates of monophenolase. […] In the formula, 'negative control' is the treatment without sample; 'blank control' is the treatment without sample and substrate; 'sample' is the treatment including all solutions; and 'sample control' is the treatment without substrate but including sample. If the inhibition rate was negative, it meant the tyrosinase was activated. The activation rate was the absolute value of inhibition rate.

[6] = test system: three-dimensional human skin model; parameters: method as in PMID 15056856; settings: cited from earlier work
[7] = Cell viability of B16F10 cells, CCK-8 assay; assay type: cell-based, mouse; settings: mouse, B16F10 melanoma cells, percentage of the control
Protocol: Blank group (control 1) was the treatment containing cells and medium. […] Compound groups were the treatments containing cells, medium, α-MSH, and related compounds. Experiments were performed at least in triplicate. […] B16F10 cells at the exponential phase were adjusted for cell density and used in the following assay. […] Cells were seeded into 96-well plates at a density of 1 × 10^4 cells/well and incubated for 24 h. Then, the cells were treated with different concentrations of compounds for 48 h. After rinsing once with D-PBS, 100 uL DMEM containing 10% CCK-8 was added and incubated for another 1 h. The absorbance values of the solution at 450 nm were measured. The cell viability is expressed as a percentage of the control.

[8] = test system: tyrosinase diphenolase from B16 mouse melanoma cells; parameters: method as in PMID 7765966; settings: cited from earlier work
[9] = biological target: diphenolase of mushroom tyrosinase (MTYR); test: Kinetic analysis of MTYR diphenolase (Lineweaver-Burk plot); assay type: biochemical
Protocol: as §3

MTYR monophenolase = biological target: MTYR monophenolase; parameters: method as in PMID 28493937; settings: read-out: IC50 on the inhibitory activity of MTYR monophenolase; cited from earlier work
[10] = change with increasing compound molarity

Kinetic analysis on monophenolase Inhibition type ([3]; Lineweaver-Burk plot): competitive inhibitor
Kinetic analysis on monophenolase Km [3, 10]: increased
Kinetic analysis on monophenolase Vmax [3, 10]: remained constant
lag time on diphenolase activity ([4]; progress curves): no lag time
lag time for monophenolase activity ([5]; L-tyrosine, progress curves): extended in a molarity-dependent manner
IC50 ([5]; substrate L-tyrosine 2 mM, MTYR 300 U/mL, 25 °C, pH 6.8): 6.5 ± 0.137 mM
Kinetic analysis on diphenolase Inhibition type ([9]; Lineweaver-Burk plot): uncompetitive activator
Kinetic analysis on diphenolase Km [9, 10]: increased
Kinetic analysis on diphenolase Vmax [9, 10]: increased
SMILES: OC[C@H]1O[C@H](Oc2ccc(O)cc2)[C@H](O)[C@@H](O)[C@@H]1O [α-arbutin]
effect on diphenolase activity of MTYR [1]: did not inhibit; also recorded: does not inhibit
tyrosinase activity of B16F10 cells stimulated by α-MSH ([2]; 43.8 µM): 91 ± 4%
tyrosinase activity of B16F10 cells stimulated by α-MSH ([2]; 87.5 µM): 88 ± 4%
tyrosinase activity of B16F10 cells stimulated by α-MSH ([2]; 175 µM): 90 ± 5%
tyrosinase activity of B16F10 cells stimulated by α-MSH ([2]; 350 µM): 93 ± 5%
tyrosinase activity of B16F10 cells stimulated by α-MSH ([2]; 700 µM): 86 ± 5%
effect on diphenolase activity of MTYR ([4]; 30-8000 µM): prompted tyrosinase activity in a dose-dependent manner
melanin content of B16F10 cells stimulated by α-MSH (B16F10 cells; 43.8 µM): 95 ± 11%
melanin content of B16F10 cells stimulated by α-MSH (B16F10 cells; 87.5 µM): 91 ± 5%
melanin content of B16F10 cells stimulated by α-MSH (B16F10 cells; 175 µM): 92 ± 3%
melanin content of B16F10 cells stimulated by α-MSH (B16F10 cells; 350 µM): 87 ± 5%
melanin content of B16F10 cells stimulated by α-MSH (B16F10 cells; 700 µM): 81 ± 3%
inhibition of melanin synthesis [6]: 60%
viability at 48 h, 43.8 µM ([7]; 43.8 µM): 108 ± 5%
viability at 48 h, 87.5 µM ([7]; 87.5 µM): 113 ± 7%
viability at 48 h, 175 µM ([7]; 175 µM): 118 ± 8%
viability at 48 h, 350 µM ([7]; 350 µM): 127 ± 10%
viability at 48 h, 700 µM ([7]; 700 µM): 145 ± 14%
potency relative to β-arbutin as inhibitor of tyrosinase from B16 mouse melanoma [8]: 10 times
IC50 (MTYR monophenolase): 8 mM
